Test system: α-NAOS hydrolase (α-agarase) derived from Vibrio sp. JT0107-L4, N-terminal sequence SEQ ID NO:2
Assay: Michaelis constant and maximum velocity by Lineweaver-Burk plot, neoagarobiose degradation measured by HPLC
Type: biochemical
Details: substrate neoagarobiose, 20 mM potassium phosphate buffer pH 7.8, 30° C.
Description: The activity determination of purified or partially purified products of this enzyme is conducted as follows. After an enzyme reaction with neoagarobiose as the substrate, the amount of degraded neoagarobiose is calculated from the amount of intact neoagarobiose which is determined by HPLC. Details are as follows. A 0.1% solution of neoagarobiose dissolved in 20 mM potassium phosphate buffer (pH 7.8) is prepared. This solution, as the substrate, in a volume of 90 μl was mixed with 10 μl of the enzyme solution. The mixed solution is incubated at 30° C. for 5 to 30 minutes, preferably for 10 minutes; the reaction is stopped by heating in boiling water for 1 minute. This reaction solution in a volume of 10 μl is applied to a column, Capcell pak C-18 (manufactured by Shiseido) which is of 4.5 mm in internal diameter and 250 mm in length, and eluted at a flow rate of 1 ml/min using water as the eluent; the amount of neoagarobiose not degraded by the enzyme reaction, which has a retention time of about 4.5 minutes, is quantified. The amount of degraded neoagarobiose is calculated inversely from the value in this measurement, assuming that the amount of enzyme degrading 1 μmol neoagarobiose per minute is 1 U. Neoagarobiose consisting of 3,6-anhydro-L-galactose and D-galactose through α-1,3 bond was used as the substrate. Various substrate solutions of different concentration were prepared. […]

SMILES: OC[C@H]1OC(O)[C@H](O)[C@@H](O[C@@H]2O[C@H]3CO[C@@H]([C@@H]2O)[C@@H]3O)[C@H]1O (some centres unmarked) [Neoagarobiose]
- Km: 4.28 ± 5 mM
- maximum velocity (1 U = 1 μmol neoagarobiose degraded per minute): 87 U/mg-protein
